Read-outs that look alike come from different tables or passages of the source.
Test: Pharmacokinetics of HLJDD components in rat plasma after oral administration of HLJDD (LC-QqQ-MS, non-compartmental)
Type: in vivo, Sprague-Dawley rats
Conditions: oral HLJDD extract; for AUC%Extrap / AUMClast / Cmax1 / Cmax2 / HLλz / Tmax1 / Tmax2 / AUC(0-inf) / AUC(0-t) / MRT last / CL/F / Vd/F / AUCinf / AUClast / MRTlast / Vz/F: crude material 3.5 g/kg, plasma, n = 6; for mean AUClast, fold larger in the inflamed group than in the control group: inflamed vs normal rats; for Vd/F: read-out: Vz/F
Protocol: The rats were acclimatized to the facilities for 5 days and screened via the continuous determination of the rectal temperature for two days. […] The control group G1 was injected with the same volume of physiological saline. The ethics committees of Cisco North Biotechnology Co., Ltd. (Beijing, China) and the China Academy of Chinese Medical Sciences (Beijing, China) approved the experimental protocol.
For the PK-PD analysis, cannulas were implanted in each rat’s jugular vein (n = 22). To study the hepatic first-pass effect (HFPE), the jugular vein and the pyloric vein of each rat (n = 5) were cannulated according to the method described by Hye J. Chung et al. with slight modifications. Instead of the portal vein, the pyloric vein was cannulated to minimize the interference of blood flow in the portal vein [41]. The surgery was performed under anesthesia (3% chloral hydrate solution, intraperitoneal injection; 3.5 mL/kg) 5 days prior to the experiment. Rats with jugular vein intubation surgery were divided into four groups: a control group with HLJDD (G1, n = 6), aninflammatory group with HLJDD (G2, n = 6), aninflammatory group with physiological saline (G3, n = 5) and another inflammatory group with HLJDD (G4, n = 5). G1 and G2 were used for the pharmacokinetic study, while G3 and G4 were used for the pharmacodynamic study. Rats with jugular and pyloric vein cannulation for HFPE analysis were assigned to another inflammatory group with HLJDD (G5, n = 5).
The prepared HLJDD-EP solution was administered to the rats (G1, G2, G4 and G5) at 2 mL/100g body weight (crude material content: 3.5 g/kg) by oral gavage, and the G3 group was given the same volume of physiological saline. […] The rectal temperature of rats in the G3 and G4 groups was immediately monitored after each collection of blood. […] Samples were collected in heparinized Eppendorf tubes and centrifuged at 3000 rpm for 15 min. The plasma was stored at -80°C until assay.
The supernatant was dried with nitrogen at 40°C. The residue was re-dissolved in 100 μL of methanol and centrifuged at 15000 rpm for 10 min.
Liquid chromatographic separations of the analytes were performed using a Thermo Scientific Hypersil GOLD column (50 mm× 2.1 mm, 1.9 μm). The mobile phase consisted of acetonitrile (solvent A) and 0.1% formic acid in water (solvent B). […] The flow rate was 0.3 mL/min. The injection volume was 2 μL. […] The optimized ESI source parameters were as follows: gas temperature, 200°C; gas flow, 14 L/min; nebulizer pressure, 20 psi; sheath gas temperature, 400°C; and sheath gas flow, 11 L/min. Analytes were quantitated by monitoring the precursor-product combination in the DMRM mode using ion polarity switching (flavonoids and alkaloids were determined in the positive mode, while iridoids were detected in the negative mode). To ensure the desired abundance of each compound, the CE values and other parameters were optimized and illustrated as follows: cycle time, 300 ms; positive capillary voltage, 3000 v; negative capillary voltage, 2000 v; positive nozzle voltage, 1500 v; negative nozzle voltage, 1000 v; Delta EMV(+), 200 v; Delta EMV(-), 200 v. The optimized mass transition ion pairs (m/z) for analytes and the detection of the conditions of the compounds are shown in S1 Table.
Pharmacokinetic parameters of the determined compounds were processed by the non-compartmental method using Phoenix Winnonlin software (Pharsight Corporation, USA). Linear trapezoidal integration was used to calculate areas under the concentration-time curves (AUC) and areas under the first moment curves (AUMC). The mean residence time (MRT) was determined as AUMC/AUC. The plasma half-life (HLλz), maximum plasma concentration (Cmax), the time to reach Cmax (Tmax) and other parameters following the administration of HLJDD were determined from the observed data. The HFPE was defined as HCR: HCR% = 100×(AUC0−t in the pyloric vein-AUC0−t in the jugular vein)/AUC0−t in the pyloric vein.

[1] = male, Sprague-Dawley, rat, po, 3.5 g/kg, inflamed rats (group M)
[2] = male, Sprague-Dawley, rat, po, 3.5 g/kg, inflamed rats (group M), read-out: CL/F (converted)
[3] = male, Sprague-Dawley, rat, po, 3.5 g/kg, normal rats (group B)
[4] = male, Sprague-Dawley, rat, in vivo, po, 3.5 g/kg, inflamed rats (group M)
[5] = male, Sprague-Dawley, rat, in vivo, po, 3.5 g/kg, normal rats (group B)

Row | Cmax2 (inflamed rats (group M)) [ng/mL] | Tmax2 (inflamed rats (group M)) [h] | Cmax2 (normal rats (group B)) [ng/mL] | Tmax2 (normal rats (group B)) [h] | Compound | AUC%Extrap (inflamed rats (group M)) [%] | AUMClast (inflamed rats (group M)) [h*h*ng/ml] | Cmax1 (inflamed rats (group M)) [ng/mL] | HLλz (inflamed rats (group M)) [h] | Tmax1 (inflamed rats (group M)) [h] | mean AUClast, fold larger in the inflamed group than in the control group [fold] | AUC(0-inf) [1] [ng·h/mL] | AUC(0-t) [1] [ng·h/mL] | MRT last [1] [h] | CL/F [2] [mL/min/kg] | Vd/F [1] [L/kg] | AUC%Extrap (normal rats (group B)) [%] | AUMClast (normal rats (group B)) [h*h*ng/ml] | Cmax1 (normal rats (group B)) [ng/mL] | HLλz (normal rats (group B)) [h] | Tmax1 (normal rats (group B)) [h] | also measured
1 | 323.9 ± 52.5 | 8.7 ± 3.0 | 517.7 ± 173.8 | 4.3 ± 0.8 | COc1c(O[C@@H]2O[C@H](C(=O)O)[C@@H](O)[C@H](O)[C@H]2O)cc(O)c2c(=O)cc(-c3ccccc3)oc12 [wogonoside] | 17.3±13.8 | 92756.1±44786.8 | 571.9 ± 183.4 | 12.2 ± 5.9 | 0.16 ± 0.08 |  |  |  |  |  |  | 9.6±6.6 | 15357.0±3545.6 | 492.9 ± 152.9 | 3.0 ± 1.0 | 0.11 ± 0.04 | AUCinf (inflamed rats (group M)): 8380.9 ± 1944.5 ng·h/mL; AUClast (inflamed rats (group M)): 6870.4 ± 1786.5 ng·h/mL; CL/F (inflamed rats (group M)): 190 ± 45 mL/min/kg; MRTlast (inflamed rats (group M)): 12.9 ± 3.0 h; Vz/F (inflamed rats (group M)): 188.6 ± 72.3 L/kg; AUCinf (normal rats (group B)): 3615.4 ± 872.3 ng·h/mL; AUClast (normal rats (group B)): 3302.3 ± 975.1 ng·h/mL; CL/F (normal rats (group B)): 442 ± 117 mL/min/kg; MRTlast (normal rats (group B)): 4.7 ± 0.5 h; Vz/F (normal rats (group B)): 118.7 ± 58.0 L/kg
2 |  |  |  |  | COC(=O)C1=CO[C@@H](O[C@@H]2O[C@H](CO)[C@@H](O)[C@H](O)[C@H]2O)[C@@H]2C(CO)=CC[C@H]12 [geniposide] | 8.9±2.9 | 1231.9±677.2 | 223.2 ± 43.7 | 1.6 ± 0.7 | 0.8 ± 0.3 | 2.9 |  |  |  |  |  | 11.5±1.5 | 192.5±74.8 | 171.6 ± 70.6 | 0.6 ± 0.3 | 0.7 ± 0.3 | AUC(0-inf) [4]: 696 ± 363 ng·h/mL; AUC(0-t) [4]: 638 ± 323 ng·h/mL; MRT last [4]: 1.9 ± 0.8 h; CL/F (male, Sprague-Dawley, rat, in vivo, po, 3.5 g/kg, inflamed rats (group M), read-out: CL/F (converted)): 3760 mL/min/kg; Vd/F [4]: 372 ± 86.7 L/kg; AUC(0-inf) [5]: 240 ± 82.1 ng·h/mL; AUC(0-t) [5]: 217 ± 86.2 ng·h/mL; MRT last [5]: 0.9 ± 0.1 h; CL/F (male, Sprague-Dawley, rat, in vivo, po, 3.5 g/kg, normal rats (group B), read-out: CL/F (converted)): 6860 mL/min/kg; Vd/F [5]: 235 ± 94.2 L/kg
3 | 2.3 ± 0.8 | 7.0 ± 3.0 | 0.4 ± 0.1 | 4.0 ± 0.0 | COc1c(O)cc2oc(-c3ccccc3)cc(=O)c2c1O [oroxylin A] | 13.4±8.6 | 365.4±192.9 | 2.5 ± 1.1 | 16.3 ± 8.8 | 0.08 ± 0.0 |  | 24.6 ± 6.1 | 21.1 ± 4.1 | 16.5 ± 6.2 | 1790 | 2820 ± 507 | 5.3±3.4 | 7.1±2.7 | 1.5 ± 0.6 | 1.7 ± 0.9 | 0.08 ± 0.0 | AUC(0-inf) [3]: 2.4 ± 0.5 ng·h/mL; AUC(0-t) [3]: 2.3 ± 0.5 ng·h/mL; MRT last [3]: 3 ± 0.6 h; Vd/F [3]: 2500 ± 1080 L/kg

Row | Compound | Cmax2 (inflamed rats (group M)) [ng/mL] | Tmax2 (inflamed rats (group M)) [h] | Cmax2 (normal rats (group B)) [ng/mL] | Tmax2 (normal rats (group B)) [h] | AUC%Extrap (inflamed rats (group M)) [%] | AUMClast (inflamed rats (group M)) [h*h*ng/ml] | Cmax1 (inflamed rats (group M)) [ng/mL] | HLλz (inflamed rats (group M)) [h] | Tmax1 (inflamed rats (group M)) [h] | mean AUClast, fold larger in the inflamed group than in the control group [fold] | AUC(0-inf) [1] [ng·h/mL] | AUC(0-t) [1] [ng·h/mL] | MRT last [1] [h] | CL/F [2] [mL/min/kg] | Vd/F [1] [L/kg] | AUC%Extrap (normal rats (group B)) [%] | AUMClast (normal rats (group B)) [h*h*ng/ml] | Cmax1 (normal rats (group B)) [ng/mL] | HLλz (normal rats (group B)) [h] | Tmax1 (normal rats (group B)) [h] | also measured
4 | O=C(O)[C@H]1O[C@@H](Oc2cc3oc(-c4ccccc4)cc(=O)c3c(O)c2O)[C@H](O)[C@@H](O)[C@@H]1O [baicalin] | 1000.4 ± 298.1 | 9.3 ± 2.1 | 1580.1 ± 202.4 | 4.3 ± 0.8 | 2.7±0.5 | 175077.1±103375.1 | 2420.9 ± 922.5 | 4.7 ± 1.1 | 0.1 ± 0.04 | 2.0 | 16800 ± 9090 | 15700 ± 9300 | 10.1 ± 2.3 | 145 | 58.8 ± 25.2 | 2.9±2.3 | 34124.1±4967.9 | 1828.8 ± 737.4 | 1.8 ± 0.4 | 0.09 ± 0.03 | AUC(0-inf) [3]: 8130 ± 906 ng·h/mL; AUC(0-t) [3]: 7880 ± 775 ng·h/mL; MRT last [3]: 4.3 ± 0.3 h; CL/F (male, Sprague-Dawley, rat, po, 3.5 g/kg, normal rats (group B), read-out: CL/F (converted)): 258 mL/min/kg; Vd/F [3]: 39.6 ± 7.1 L/kg

Reference: article PMC4900566, “Pharmacokinetic-Pharmacodynamic Analysis on Inflammation Rat Model after Oral Administration of Huang Lian Jie Du Decoction” (PLoS ONE, 2016)
